The source of these data is patent US20080287396A1, “Phosphonated Fluoroquinolones, Antibacterial Analogs Thereof, and Methods for the Prevention and Treatment of Bone and Joint Infections” (TARGANTA THERAPEUTICA INC., priority 2005, published 2008).

For data set [1], the system named is S. aureus strains ATCC13709 and RN4220. In words: microbe, parasite or virus in culture. Type of data set: cell-based. Conditions: Staphylococcus aureus, ATCC13709; CAMHB, 37° C., 18 h; data not shown; read-out: minimum inhibitory concentration (MIC). Here is the method:
Susceptibility of S. aureus strains ATCC13709 and RN4220 to the commercial antibiotics and synthesized compounds was determined by following the guidelines set by the Clinical and Laboratory Standards Institute (formerly the National Committee for Clinical Laboratory Standards) (M26-A). Compounds were diluted two-fold serially in DMSO and transferred to cation-adjusted Mueller Hinton broth (CAMHB; Becton Dickinson). 50 μL of compounds diluted in CAMHB was mixed with 100 μL of bacteria diluted in CAMHB in 96-well microtiter plates. The final number of micro-organisms in the assay was 5×10^5 c.f.u. per mL and the final concentration of DMSO in the assay was 1.25%. Assays were set up in duplicate and incubated at 37° C. for 18 h. The concentration of compound that inhibited visible growth was reported as the minimum inhibitory concentration (MIC).

The nature of data set [2]: Bone powder binding, fluorometric detection. Conditions: 1 mg/ml compound, bone meal powder 10 mg/ml in PBS, 37° C., 1 h. The method, then:
The ability of the example molecules to bind to bone powder was established in two parallel fashions, using either LC/MS or fluorometric detection. For LC/MS detection, a stock solution (5 mM) of the compound to be tested was added to 0.1M Tris-HCl buffer pH 7, 0.15M NaCl to reach a final concentration of 100 μM. Triplicate samples (1 mL) of the compound solutions were intensively shaken for 10 min with or without 25 mg of fresh or 20 mg of vacuum dried ground rat tibia bone. The samples were then centrifuged for 15 min at 10 000 g. The presence of unbound compound was measured by injection of 30 μL of each of the supernatants into an Agilent 1100™ LC/UV system. For fluorometric detection, an individual compound was dissolved in PBS or water (compound 52) and resuspended at a concentration of 1 mg/ml in a slurry of bone meal powder (Now Foods, Bloomingdale, Ill., USA) in PBS at 10 mg/ml. The suspension of drug/prodrug in bone meal powder was incubated at 37° C. for 1 h to allow for binding, and centrifuged at 13 000 rpm for 2 min, before recovering the supernatant. The bone meal powder pellet was then washed three times with 1 ml of PBS. All supernatants were saved and assessed for fluoroquinolone content by fluorescence measurements at excitation/emission wavelengths of 280/465 nm. The amount of fluoroquinolone was determined from standard curves generated for each experiment. Amount of drug/prodrug bound to bone powder was deduced from the difference between the input amount (typically 1 mg) and the amount recovered in the supernatants after binding. In all binding experiments, >99% of input drug was recovered in the supernatant for the parent drugs.

The next data set relates to S. aureus ATCC 13709. In words: Prophylactic model of bone infection in rats. It is filed as in vivo, rat. Conditions: for bacterial titer compared with untreated group: 10 mg/kg IV 1 h after infection (positive control); for Measured bacterial titer (Log CFU/g of bone) Test compound: 20 mg/kg IV, 3 days prior to infection; for prophylactic effect in rat model of bone infection, in words: Table 4 and FIGS. 6-8, doses as in Table 4. Here is the method: To determine the activity in vivo of bisphosphonated prodrugs of fluoroquinolones, compounds 52 and 107, derivatives of parent compounds moxifloxacin 3 (for 52), and compounds 39, 44, 49, 54, 121, 129, 141, 145, 149, derivatives of parent compound gatifloxacin 15, were used in a prophylactic model for infection. Specifically, S. aureus ATCC 13709 cells were grown overnight at 37° C. in brain heart infusion broth (BHIB). Cells were subcultured into fresh BHIB and incubated for 4 to 5 h at 37° C. The cells were washed twice with phosphate-buffered saline (PBS) and resuspended in BHIB supplemented with 10% (vol./vol.) fetal bovine serum at a density of approximately 10^10 colony forming units (CFU)/ml (based upon turbidimetry). The suspension was aliquoted and a portion was used to check the CFU count. The culture was stored frozen (−80° C.) and was used without subculture. For use as an inoculum the culture was thawed, diluted in PBS and kept in an ice bath until it was used.
Animals were infected as described by O'Reilly et al. (Antimicrobial Agents and Chemotherapy (1992), 36(12): 2693-97) to generate the bone infection. Female CD rats (age, 57 to 70 days; n=5/group; Charles River, St-Constant, Canada) were anaesthetized by isofluorane before and during the surgery. Following complete induction of anesthesia, the rat was placed ventral side up and hair was shaved from the surgical site. The skin over the leg was cleaned and disinfected (proviodine-ethanol 70%). A longitudinal incision below the knee joint was made in the sagital plane. The incision was made over the bone below the “knee joint” (tibia head or condyle) but not completely extending to the ankle. A high speed drill fitted with a 2 mm bulb bit was used to drill a hole into the medullar cavity of the tibia. Rats were injected intra-tibially with 0.05 ml 5% sodium morrhuate (sclerosing agent) and then with 0.05 ml of S. aureus suspension (ca. 5×10^5 CFU/rat). The hole was sealed by applying a small amount of dry dental cement which immediately absorbs fluids and adheres to the site. The wound was closed using 3 metal skin clips. Moxifloxacin 3 (as a positive control) was injected once at 10 mg/kg intravenously 1 h postinfection in saline, while the fluoroquinolone prodrugs (prepared in 0.9% saline) were injected as a single intravenous bolus dose at different time points prior to the infection. For comparison, the parent drug (moxifloxacin 3 or gatifloxacin 15) was also injected intravenously once at a molar equivalent dose at the same time point prior the infection.
Infected rats were sacrificed by CO2 asphyxiation 24 h postinfection to monitor the bacterial CFU count. Infected tibiae were removed, dissected free of soft tissue, and weighed. The bones were ground using a metal ball mill, resuspended in 5 ml 0.9% NaCl, serially diluted and processed for quantitative cultures. For compounds 39, 44, 49, 54, 141, 145, 149, 1 ml of the 0.9% NaCl solution was added to 50 mg of charcoal before serial dilutions. Treatment efficacies were measured in terms of Log viable bacteria (Log CFU per gram of bone). The results obtained for each group of rats were evaluated by calculating the mean Log CFU and standard deviation. The limit of detection is 2 Log CFU/g of bone. Statistical comparisons of viable bacterial counts for the different treated and untreated groups were performed with Dunnett's multiple-comparison test. Differences were considered significant when the P value was <0.05 when comparing treated infected animals to the untreated infected ones.

Another data set deals with Hela cells. In words: Cytotoxicity assay (MTS reduction). Type of data set: cell-based. Conditions: concentrations up to 100 μM, 18 h, MTS reagent; data not shown. The method, then:
Selected compounds were also tested for their ability to inhibit growth of mammalian cells so as to ascertain levels of cytotoxicity to the mammalian host, via an assay measuring the biological reduction of the inner salt of (3-(4,5-dimethylthiazol-2-yl)-5-(3-carboxymethoxyphenyl)-2-(4-sulfophenyl)-2H-tetrazolium (MTS reagent). Assays were performed in 96-well microtiter plates. Briefly, compounds at 100, 50, 25, and 12.5 μM concentrations were incubated with 2×10^4 Hela cells per well in Dulbecco's Modified Eagle Medium (Invitrogen Corporation) containing 1% Bovine Growth Serum (HyClone) for 18 h at 37° C. under 5% CO2.
On the technique in general: Tetrazolium dyes change colour on reduction, which living cells bring about.

Data set [3] is described as follows: Regeneration of drug from bone powder-bound prodrug. Conditions: for drug released from the bone matter after 24 h, in words / drug released from the bone matter after 7 days of incubation, in words: medium not stated; for effect of the medium (presence or absence of serum) on regeneration rate: PBS vs serum. Type of data set: in vitro ADME. Here is the method: Amounts of drug “regenerated” from the phosphonated parent prodrug were measured as follows. Washed bone powder-bound prodrugs from the above section were resuspended in 400 μL PBS or in 400 μL 50% (v/v in PBS) human or rat serum. […] Methanol (5× volume relative to supernatant) was added to each supernatant and the mixture was vortexed on a floor model vortex for 15 min to extract freed fluoroquinolone. The mixture was then centrifuged at 10 000 rpm for 15 min to pellet the insoluble material. The supernatant containing the extracted fluoroquinolone was recovered and evaporated to dryness in a speed vac. The dried pellets were resuspended in PBS and the amount of fluoroquinolone was determined by fluorescence measurements as described above. The percentage of drug regenerated was deduced from the difference between amount of bound prodrug and the amount of regenerated drug. The identity of regenerated drug was deduced by MIC determination; MICs of regenerated material matched those of parent drugs but not those of prodrugs.

Values after ≈ are worked out from the molar mass of the structure shown. “Also recorded” adds a separate entry of the source.

Take `COc1c(N2C[C@@H]3CCCN[C@@H]3C2)c(F)cc2c(=O)c(C(=O)O)cn(C3CC3)c12` [Compound 3, Moxifloxacin, reference compound]: the MIC in data set [1] fell in the range of 0.5 to 1 µg/mL (≈ 1.25 to 2.49 µM). Besides, the “Binding to bone (%) Fluorescence” value in data set [2] worked out at 0%. For the same molecule, the “bacterial titer compared with untreated group” value in the data set on S. aureus ATCC 13709 is recorded as “significant decrease in the bacterial titer”; in the data set on S. aureus ATCC 13709 (listed as moxifloxacin 3) it was “significant (p<0.05) decrease in bacterial titer; also recorded: significant (p-value ≦0.0002) decrease in bacterial titer”. The “prophylaxis by the parent drug, in words” value with S. aureus ATCC 13709 (used five or two days prior to infection) was “unable to exhibit such efficient prophylaxis”.

Regarding `COc1c(N2C[C@@H]3CCCN(CC(P(=O)(O)O)P(=O)(O)O)[C@@H]3C2)c(F)cc2c(=O)c(C(=O)O)cn(C3CC3)c12` [Compound 5, 7-((4aS,7aS)-1-(2,2-bisphosphonoethyl)-octahydropyrrolo[3,4-b]pyridin-6-yl)-1-cyclopropyl-6-fluoro-1,4-dihydro-8-methoxy-4-oxoquinoline-3-carboxylic acid], the cytotoxicity result with Hela cells was “no signs of any cytotoxicity”. Further, in data set [2], the “Binding to bone (%) Fluorescence” value is listed as 92.2%. Besides, in data set [3], the “drug released from the bone matter after 24 h, in words” value is given as “not measurable amount of drug released” and the “drug released from the bone matter after 7 days of incubation, in words” value was “only trace amounts”.

Take `O=C(O)c1cn(C2CC2)c2cc(N3CCN(CC(P(=O)(O)O)P(=O)(O)O)CC3)c(F)cc2c1=O` [Compound 8, 7-(4-(2,2-bisphosphonoethyl)piperazin-1-yl)-1-cyclopropyl-6-fluoro-1,4-dihydro-4-oxoquinoline-3-carboxylic acid]: the cytotoxicity result in the data set with Hela cells is “no signs of any cytotoxicity”. In addition, the “Binding to bone (%) Fluorescence” value in data set [2] is reported as 99.6%. The “drug released from the bone matter after 24 h, in words” value in data set [3] is listed as “not measurable amount of drug released”.

Consider `COc1c(N2C[C@@H]3CCCN[C@@H]3C2)c(F)cc2c(=O)c(C(=O)OCCCC(P(=O)(O)O)P(=O)(O)O)cn(C3CC3)c12` [Compound 14, 4,4-bisphosphonobutyl 7-((4aS,7aS)-octahydropyrrolo[3,4-b]pyridin-6-yl)-1-cyclopropyl-6-fluoro-1,4-dihydro-8-methoxy-4-oxoquinoline-3-carboxylate], for which the cytotoxicity result in the data set with Hela cells was “no signs of any cytotoxicity”. Besides, the “Binding to bone (%) Fluorescence” value in data set [2] was found to be 93.8%. Also, in data set [3], the “drug released from the bone matter after 7 days of incubation, in words” value is on record as “signs of drug release”.

Consider `COc1c(N2CCNC(C)C2)c(F)cc2c(=O)c(C(=O)O)cn(C3CC3)c12` (stereo not shown) [Compound 15, Gatifloxacin, reference compound], for which the MIC in data set [1] was 0.5 to 1 µg/mL (≈ 1.33 to 2.66 µM). The “Binding to bone (%) Fluorescence” value in data set [2] was determined as 0%. The “prophylactic effect on bacterial titer” value in the data set on S. aureus ATCC 13709 (10 mg/Kg (equivalent dose) 48 h prior to infection (FIG. 8)) was “without effect”.

Turning to `COc1c(N2CCN(C(=O)OC(C)OC(=O)CCCC(=O)NC(P(=O)(O)O)P(=O)(O)O)C(C)C2)c(F)cc2c(=O)c(C(=O)O)cn(C3CC3)c12` (stereo not shown) [Compound 39], in the data set on Hela cells, the cytotoxicity result is “no signs of any cytotoxicity”. The “Binding to bone (%) Fluorescence” value in data set [2] is on record as 94.3%. Moreover, the “effect of the medium (presence or absence of serum) on regeneration rate” value (from here on “effect of the medium”) in data set [3] is on record as “fairly similar rates”. In addition, in the data set with S. aureus ATCC 13709, the “Measured bacterial titer (Log CFU/g of bone) Test compound” value is given as 4.63 ± 0.39 Log CFU/g of bone and the “prophylactic effect in rat model of bone infection, in words” value is on record as “unable to produce a positive result in vivo”.

As to `COc1c(N2CCN(C(=O)OC(C)OC(=O)CCCC(P(=O)(O)O)P(=O)(O)O)C(C)C2)c(F)cc2c(=O)c(C(=O)O)cn(C3CC3)c12` (stereo not shown) [Compound 44], the MIC in data set [1] fell in the range of 1 to 8 µg/mL (≈ 1.41 to 11.3 µM). Also, the “Binding to bone (%) Fluorescence” value in data set [2] came out at 88.4%. In data set [3], the “effect of the medium” value is recorded as “fairly similar rates”. In the data set with S. aureus ATCC 13709, the “Measured bacterial titer (Log CFU/g of bone) Test compound” value is reported as 4.72 ± 0.83 Log CFU/g of bone and the “prophylactic effect in rat model of bone infection, in words” value is “unable to produce a positive result in vivo”.

Regarding `COc1c(N2CCNC(C)C2)c(F)cc2c(=O)c(C(=O)OCC(=O)Nc3ccc(CC(P(=O)(O)O)P(=O)(O)O)cc3)cn(C3CC3)c12` (stereo not shown) [Compound 64, (4-(2,2-Bisphosphonoethyl)phenylcarbamoyl)methyl 7-(3-methylpiperazin-1-yl)-1-cyclopropyl-6-fluoro-1,4-dihydro-8-methoxy-4-oxoquinoline-3-carboxylate], the cytotoxicity result in the data set with Hela cells was “no signs of any cytotoxicity”. Besides, in data set [2], the “Binding to bone (%) Fluorescence” value stood at 88.9%. In addition, in data set [3], the “effect of the medium” value is reported as “fairly similar rates”.
